Read-outs that look alike come from different tables or passages of the source.
Tests used:
[1] = infusion times 3 to 24 hours; cited from earlier work
breast cancer [2] = details: paclitaxel 135 mg/m^2 in combination with cisplatin 75 mg/m^2; cited from earlier work
ovarian cancer = details: cited from earlier work
mammalian cells = details: 50 nM paclitaxel concentration; cited from earlier work
breast cancer [3] = details: cited from earlier work

Description for ovarian carcinoma: Patients with taxane-resistant ovarian cancer are defined as having (1) progression of disease while receiving taxane therapy; (2) progression within 12 months of taxane therapy; (3) persistent stable disease after six courses of taxane therapy; or (4) persistent stable disease with at least CA-125 rising measurements (to a value of ≧100).
Patients without liver metastases and who had mild liver function abnormalities (SGOT and alkaline phosphatase less than 1.5 times upper normal limit) and a normal bilirubin received a total dose of 140 mg/m^2.
Each mL of sterile solution contains 527 mg polyoxyethylated castor oil (Cremaphor® EL) and 49.7% (w/v) absolute alcohol.
The in-line filter was then connected to the subjects central access device.
The procedure was repeated three more times, for a total 96 hour continuous infusion. The final dose was 140 mg/m^2/96 hours.
Complete response (CR): Complete disappearance of all clinical evidence of disease persisting through the next evaluation period at 6 weeks. Evaluable lesions must have disappeared completely.
Partial Response (PR): At least 50% decrease in the sum of the products of the diameters of all measurable lesions persisting through the next evaluation period at six weeks. In addition, concomitant evaluable lesions must show no evidence of progressive disease or new lesions.
Progressive Disease (PD): 25% or greater progression in the sum of the products of the diameter of any measurable lesion(s) over one cycle of chemotherapy or the appearance of any new lesion consistent with metastatic disease.

CC(=O)O[C@H]1C(=O)[C@@]2(C)[C@H]([C@H](OC(=O)c3ccccc3)[C@]3(O)C[C@H](OC(=O)[C@H](O)[C@@H](NC(=O)c4ccccc4)c4ccccc4)C(C)=C1C3(C)C)[C@]1(OC(C)=O)CO[C@@H]1C[C@@H]2O [paclitaxel, 5β, 20-epoxy-1 ,2α4,7β10β13α-hexahydroxytax-11-en-9-one 4, 10-diacetate 2-benzoate 12-ester with (2R,3S)-Nbenzoyl-3-phenylisososerine]
dose limiting toxicity [1]: reversible myelosuppression | response rate (breast cancer [2]): 79% | response rate (ovarian cancer; 135 mg/m^2 every three weeks): 15% | response rate (ovarian cancer; 175 mg/m^2 every three weeks): 20% | time to tumor progression (ovarian cancer; higher dose (175 mg/m^2)): 19 weeks | time to tumor progression (ovarian cancer; lower dose (135 mg/m^2)): 14 weeks | effect on microtubules and cells (mammalian cells): significant increase in microtubule number | response rate (breast cancer [3]; doses of 250 mg/m^2 with G-CSF, single agent): 36-71% | response rate (breast cancer [3]; doses of 135 to 175 mg/m^2, single agent): 13-37% | partial responses (ovarian carcinoma; of 14 patients, 140 mg/m^2 over 96 hour infusion every 21 days): 3 | patients with stable disease (ovarian carcinoma; of 14 patients, 96 hour infusion): One | overall response rate (ovarian carcinoma; partial responses plus stable disease, 14 patients, 96 hour infusion): 29% | response rate (ovarian carcinoma; partial responses, 14 patients, 96 hour infusion): 21%

Reference: patent publication US6334445B1, “Methods and compositions for treatment of ovarian cancer” (Baker Norton Pharmaceuticals, Inc., priority 1997, dated 2002)
